Test results: patent US12370143B2, “Compound or salt thereof and lipid particles” (FUJIFILM Corporation, priority 2018, dated 2025)

Experiments:
[1] = Particle size of nucleic acid lipid particles (Luc2-siRNA); assay type: physicochemical; conditions: compound/DSPC/cholesterol/DMG-PEG2000 50/10/38.5/1.5
Protocol: By using the dispersion liquid of lipid particles as it was, the particle size of the lipid particles was measured using a zeta potential/particle size measurement system ELS-Z2 (Otsuka Electronics Co., Ltd.).
(§1) The compounds described in Table 2, L-α-distearoylphosphatidylcholine (trade name: COATSOME® MC-8080; NOF corporation), cholesterol (trade name: Choesterol HP; NIPPON FINE CHEMICAL CO., LTD.), and 1,2-dimyristoyl-rac-glycero-3-(methylpolyoxyethylene 2000) (hereinafter, called DMG-PEG2000) (trade name: SUNBRIGHT® GM-020; NOF corporation) were dissolved in ethanol at a molar ratio of 50/10/38.5/1.5 such that the total lipid concentration became 20 mmol/L, thereby obtaining an oil phase.
(§2) An aqueous nucleic acid solution obtained by dissolving 5 mg of Luc2-siRNA having the sequence described in Biomacromolecules (2013) 14, p. 3905 in 1 mL of sterile water was diluted with 10 mmol/L acetate buffer having a pH 4 such that the nucleic acid concentration became 19.7 μmol/L, thereby obtaining a water phase. Then, the water phase and the oil phase were mixed together by a micromixer (see JP5288254B) using a syringe pump such that the volume ratio of water phase:oil phase became 3:1 (final ratio of siRNA/lipid=339 (mol/mol)), and the mixed solution was diluted 2× with PBS, thereby obtaining a dispersion liquid of nucleic acid lipid particles. The dispersion liquid was dialyzed (Slide-A-Lyzer G2, MWCO: 10 kD, Thermo Fisher Scientific) using a phosphate buffered saline such that ethanol was removed, thereby obtaining nucleic acid lipid particles.
The particle size of the nucleic acid lipid particles was measured by the same method as that in <Preparation of lipid particles>.

[2] = Encapsulation rate of siRNA in nucleic acid lipid particles (Luc2-siRNA); assay type: physicochemical; conditions: compound/DSPC/cholesterol/DMG-PEG2000 50/10/38.5/1.5
Protocol: as §1, §2
A 3 mol/L aqueous sodium acetate solution (30 μL) and 9 μL of glycogen were added to 60 μL of the lipid particles retaining nucleic acids, and then 1.5 mL of ethanol was added thereto such that only the nucleic acids were precipitated while the lipid was dissolved. Then, the supernatant was removed by centrifugation. After the precipitates were air-dried for 15 minutes or longer, water was added thereto such that the precipitates were redissolved, and the concentration thereof was measured using Nanodrop NF1000 (Thermo Fisher Scientific), thereby quantifying the total nucleic acid concentration.
The nucleic acid concentration was quantified using a Quant-iT RiboGreen RNA Assay Kit (Thermo Fisher Scientific) according to the protocol. First, a 20×TE buffer included in the above kit was diluted with water, thereby obtaining a 1×TE buffer. TE represents Tris/EDTA (ethylenediaminetetraacetic acid). In order to quantify only the nucleic acid in the outer water phase, the dispersion liquid of lipid particles retaining nucleic acids was diluted 10,000× with the 1×TE buffer.
The 10,000× diluted dispersion liquid of lipid particles (100 μL) was put in a 96-well plate, then 100 μL of a RiboGreen reagent (reagent included in the Quanti-iT Ribogreen RNA Assay Kit described above) diluted 2000× with the 1×TE buffer was added to a sample, and fluorescence (excitation wavelength: 485 nm, fluorescence wavelength: 535 nm) was measured using a plate reader Infinit EF200 (TECAN), thereby quantifying the nucleic acid concentration in the outer water phase.
By using the total nucleic acid concentration obtained through the above steps and the quantified nucleic acid concentration in the outer water phase, the nucleic acid encapsulation rate of the nucleic acid lipid particles was calculated according to the following Equation. Nucleic acid encapsulation rate (%)=(total nucleic acid concentration−nucleic acid concentration in outer water phase)/total nucleic acid concentration×100 The results are shown in Table 2.

SMILES | Particle size (nm) [1] [nm] | Nucleic acid encapsulation rate [2] [%]
CCCCCCC(CCCCCCCCC(=O)OCCC(CCCCC)CCCCC)OC(=O)OCCN(CCO)CCN(CC)CC (stereo not shown) [Example 123, 3-Pentyloctyl 3-ethyl-12-hexyl-6-(2-hydroxyethyl)-10-oxo-9,11-dioxa-3,6-diazahenicosan-21-oate] | 257 | 66
CCCCCCCCC(CCCCCC)COC(=O)CCCCCCCCC(CCCCC)OC(=O)OCCN(CCOC(=O)CCCCCCC)CCN(CC)CC (stereo not shown) [Example 132, 2-Hexyldecyl 3-ethyl-6-(2-(octanoyloxy)ethyl)-10-oxo-12-pentyl-9,11-dioxa-3,6-diazahenicosan-21-oate] | 98.4 | 76
CCCCC/C=C\C/C=C\CCCCCCCC(=O)OCC(COC(=O)CCCCCCC/C=C\C/C=C\CCCCC)OC(=O)OCCN(CC)CCN(C)C [Example 35, 2-(((2-((2-(Dimethylamino)ethyl)(ethyl)amino)ethoxy)carbonyl)oxy)propane-1,3-diyl(9Z,9′Z,12Z,12′Z)-bis(octadeca-9,12-dienoate)] | 80.1 | 87
CCCCCCCCC(CCCCCC)COC(=O)CCCCCCCCC(CCCCCC)OC(=O)OCCN(CCO)CCN(CC)CC (stereo not shown) [Example 97, 2-Hexyldecyl 3-ethyl-12-hexyl-6-(2-hydroxyethyl)-10-oxo-9,11-dioxa-3,6-diazahenicosan-21-oate] | 142 | 82
CCCCCCC(CCCC)COC(=O)CCCC(CCCCCC)OC(=O)OCCN(CC)CCN(CC)CC (stereo not shown) [Example 80, 2-butyloctyl 3,6-diethyl-12-hexyl-10-oxo-9,11-dioxa-3,6-diazahexadecan-16-oate] | 98.7 | 61
CCCCCCC(CCCCCCCCC(=O)OCC(CCCCC)CCCCC)OC(=O)OCCN(CCO)CCN(CC)CC (stereo not shown) [Example 128, 2-Pentylheptyl 3-ethyl-12-hexyl-6-(2-hydroxyethyl)-10-oxo-9,11-dioxa-3,6-diazahenicosan-21-oate] | 255 | 62
CCCCC/C=C\C/C=C\CCCCCCCCN(CCCCCCCCC)C(=O)OCCN(C)CCN(C)C [Example 16, 2-((2-(Dimethylamino)ethyl)(methyl)amino)ethyl nonyl((9Z,12Z)-octadeca-9,12-dien-1-yl)carbamate] | 113.4 | 90
CCCCC/C=C\C/C=C\CCCCCCCCC(CCCCCCCC/C=C\C/C=C\CCCCC)OC(=O)OCCN(CCN(C)CC)C(C)(C)C [Example 79, 2-(tert-Butyl(2-(ethyl(methyl)amino)ethyl)amino)ethyl((6Z,9Z,28Z,31Z)-heptatriaconta-6,9,28,31-tetraen-19-yl)carbonate] | 65.5 | 81
CCCCC/C=C\C/C=C\CCCCCCCCC(CCCCCCCC/C=C\C/C=C\CCCCC)OC(=O)OCCN(C)CCN1CCOCC1 [Example 21, 2-(Methyl(2-morpholinoethyl)amino)ethyl((6Z,9Z,28Z,31Z)-heptatriaconta-6,9,28,31-tetraen-19-yl)carbonate] | 78.0 | 78
CCCCCCC(CCCC)COC(=O)CCCC(CCCCCC)OC(=O)OCCN(CCN(CC)CC)C(C)C (stereo not shown) [Example 81, 2-Butyloctyl 3-ethyl-12-hexyl-6-isopropyl-10-oxo-9,11-dioxa-3,6-diazahexadecan-16-oate] | 102.6 | 49
CCCCC/C=C\C/C=C\CCCCCCCCC(CCCCCCCC/C=C\C/C=C\CCCCC)OC(=O)OCCN(CCN(C)CCC)C(C)C [Example 63, (6Z, 9Z, 28Z, 31Z)-heptatriaconta-6,9,28,31-tetraen-19-yl(2-(isopropyl(2-(methyl(propyl)amino)ethyl)amino)ethyl)carbonate] | 65.8 | 79
CCCCC/C=C\C/C=C\CCCCCCCCC(CCCCCCCC/C=C\C/C=C\CCCCC)OC(=O)OCCN(CCC)CCN(CC)CC [Example 44, 2-((2-(Diethylamino)ethyl)(propyl)amino)ethyl((6Z,9Z,28Z,31Z)-heptatriaconta-6,9,28,31-tetraen-19-yl)carbonate] | 69.4 | 59
CCCCCC/C=C\COC(=O)CCCCCCCN(CCCCCCCC(=O)OC/C=C\CCCCCC)C(=O)OCCN(C)CCN(C)C [Example 11, (Z)-non-2-en-1-yl 2,5-dimethyl-10-(8-(((Z)-non-2-en-1-yl)oxy)-8-oxooctyl)-9-oxo-8-oxa-2,5,10-triazaoctadecan-18-oate] | 217.2 | 84
CCCCCC/C=C\COC(=O)OCCCCCCN(CCCCCCOC(=O)OC/C=C\CCCCCC)C(=O)OCCN(C)CCN(C)C [Example 14, 2-((2-(Dimethylamino)ethyl)(methyl)amino)ethyl bis(6-(((((Z)-non-2-en-1-yl)oxy)carbonyl)oxy)hexyl)carbamate] | 219.0 | 76
CCCCCC/C=C/COC(=O)CCCCCCCN(CCCCCCCC(=O)OC/C=C/CCCCCC)C(=O)OCCN(C)CCN(C)C [Example 12, (E)-non-2-en-1-yl 2,5-dimethyl-10-(8-(((E)-non-2-en-1-yl)oxy)-8-oxooctyl)-9-oxo-8-oxa-2,5,10-triazaoctadecan-18-oate] | 254.2 | 100
CCCCC/C=C\C/C=C\CCCCCCCCC(CCCCCCCC/C=C\C/C=C\CCCCC)OC(=O)OCCN(CC)CCN(CCC)CCC [Example 49, 2-((2-(Dipropylamino)ethyl)(ethyl)amino)ethyl((6Z,9Z,28Z,31Z)-heptatriaconta-6,9,28,31-tetraen-19-yl)carbonate] | 74.3 | 80
CCCCCCCCC(CCCCCC)COC(=O)CCCCCCCCC(CCCCC)OC(=O)OCCN(CCN(CC)CC)C(C)C (stereo not shown) [Example 127, 2-Hexyldecyl 3-ethyl-6-isopropyl-10-oxo-12-pentyl-9,11-dioxa-3,6-diazahenicosan-21-oate] | 80.7 | 71
CCCCC/C=C\C/C=C\CCCCCCCCN(CCCCCCCC/C=C\C/C=C\CCCCC)C(=O)OCCCN(C)CCN(C)C [Example 2, 3-((2-(Dimethylamino)ethyl)(methyl)amino)propyl di((9Z,12Z)-octadeca-9,12-dien-1-yl)carbamate] | 80.5 | 78
CCCCCCCCC(CCCCCC)COC(=O)CCC(CCCCCC)OC(=O)OCCN(CCN(CC)CC)C(C)C (stereo not shown) [Example 114, 2-Hexyldecyl 3-ethyl-12-hexyl-6-isopropyl-10-oxo-9,11-dioxa-3,6-diazapentadecan-15-oate] | 80.1 | 69
CCCCC/C=C\C/C=C\CCCCCCCCC(CCCCCCCC/C=C\C/C=C\CCCCC)OC(=O)OCCN(CC)CCN1CCOCC1 [Example 22, 2-(Ethyl(2-morpholinoethyl)amino)ethyl((6Z,9Z,28Z,31Z)-heptatriaconta-6,9,28,31-tetraen-19-yl)carbonate] | 69.3 | 69
